In ChEMBL document CHEMBL4706711, “Alkaloids of Delphinium grandiflorum and their implication to HO-induced cardiomyocytes injury” (Bioorg Med Chem, 2021):
Calls of active or inactive are those of the source. The calls are words filed in the database; no cut-off is given here.

Assays:
H9c2 [1] = assay: Cardioprotective activity against rat H9c2 cells assessed as reduction in H2O2-induced apoptosis by measuring up regulation of Bcl2 expression at 2 uM preincubated for 24 hrs followed by H2O2 stimulation and measured after 1 hr by Western blot analysis; assay type: functional, cell-based; conditions: time 25.0 hrs
H9c2 [2] = assay: Cardioprotective activity against rat H9c2 cells assessed as reduction in H2O2-induced cell death at 50 uM preincubated for 24 hrs followed by H2O2 stimulation and measured after 1 hr by CCK8 assay; assay type: functional, cell-based; conditions: time 25.0 hrs
H9c2 [3] = assay: Activation of AMPKalpha in H2O2-induced rat H9c2 cells assessed as reduction in AKT expression at 2 uM preincubated for 24 hrs followed by H2O2 stimulation and measured after 1 hr by Western blot analysis; conditions: filed as activator, time 25.0 hrs
H9c2 [4] = assay: Cardioprotective activity against rat H9c2 cells assessed as reduction in H2O2-induced cell death preincubated for 24 hrs followed by H2O2 stimulation and measured after 1 hr by CCK8 assay; assay type: functional, cell-based
H9c2 [5] = assay: Cardioprotective activity against rat H9c2 cells assessed as reduction in H2O2-induced apoptosis by measuring down regulation of Bax expression at 2 uM preincubated for 24 hrs followed by H2O2 stimulation and measured after 1 hr by Western blot analysis; assay type: functional, cell-based; conditions: time 25.0 hrs
H9c2 [6] = assay: Activation of AMPKalpha in H2O2-induced rat H9c2 cells assessed as increase in AMPKalpha phosphorylation at […] residues at 2 uM preincubated for 24 hrs followed by H2O2 stimulation and measured after 1 hr by Western blot analysis; conditions: filed as activator, time 25.0 hrs
H9c2 [7] = assay: Cardioprotective activity in H2O2-induced mitochondrial membrane potential loss in rat H9c2 cells assessed as increase in MMP level at 2 uM preincubated for 24 hrs followed by H2O2 stimulation and measured after 1 hr by JC1 staining based flow cytometry; assay type: functional, cell-based; conditions: time 25.0 hrs
H9c2 [8] = assay: Activation of AMPKalpha in H2O2-induced rat H9c2 cells assessed as reduction in mTOR expression at 2 uM preincubated for 24 hrs followed by H2O2 stimulation and measured after 1 hr by Western blot analysis; conditions: filed as activator, time 25.0 hrs
H9c2 [9] = assay: Cytotoxicity against rat H9c2 cells assessed as reduction in cell viability at 50 uM measured after 24 hrs by CCK8 assay; assay type: cell-based; conditions: h9c2, 24 h
H9c2 [10] = assay: Cardioprotective activity against rat H9c2 cells assessed as reduction in H2O2-induced ROS generation at 2 uM preincubated for 24 hrs followed by H2O2 stimulation and measured after 1 hr by DCFH-DA staining based flow cytometry; assay type: functional, cell-based; conditions: time 25.0 hrs

Row | Compound | Activity (H9c2 [2]) | IC50 (H9c2 [4]) | Activity (H9c2 [9]) | further results
1 | CCN1C(=O)[C@]2(CO)CC[C@H](OC)[C@]34C1[C@](O)([C@@H](OC)[C@H]23)[C@@]1(O)C[C@H](OC)[C@H]2C[C@@H]4[C@@H]1[C@H]2OC | Active | 1880 nM | Non-Toxic | Activity (H9c2 [1]): Active; Activity (H9c2 [3]): Active; Activity (H9c2 [5]): Active; Activity (H9c2 [6]): Active; Activity (H9c2 [7]): Active; Activity (H9c2 [8]): Active; Activity (H9c2 [10]): Active
2 | CO[C@H]1[C@@H]2C[C@@H]3[C@H]1[C@](O)(C[C@@H]2OC)[C@@]1(O)C2[N+]([O-])=C[C@]4(CO)CC[C@H](OC)[C@@]23[C@@H]4[C@@H]1OC | inactive |  |  | 
3 | COC(=O)c1ccccc1NC(=O)CC(C)C(=O)O (stereo not drawn) |  | 1900 nM | Non-Toxic | 
4 | CCN1C2OC(=O)[C@]3(CO)CC[C@H](OC)C24[C@@H]2C[C@@H]5[C@H](OC)[C@@H]2[C@](O)(C[C@@H]5OC)[C@]1(O)[C@@H](OC)[C@@H]43 | Active |  | Non-Toxic | 
5 | CCN1C(=O)[C@]2(CO)CC[C@H](OC)[C@]34C1O[C@@](O)([C@@H](OC)[C@H]23)[C@@]1(O)C[C@H](OC)[C@@H]2C[C@@H]4[C@@H]1[C@H]2OC | Active |  | Non-Toxic | 
6 | CO[C@H]1[C@@H]2C[C@@H]3[C@H]1[C@](O)(C[C@@H]2OC)C(=O)[C@@H](OC)[C@@H]1[C@@]2(COC(C)=O)CC[C@H](OC)[C@@]31C=[N+]([O-])C2 | inactive |  |  | 
